Among the data in PubChem BioAssay AID179 (DTP/NCI, 2004) are EC50, IC50 and outcome values, retold here.

The test system of the test is CEM cells HIV-1 protection, formazan growth assay. Kind of test: NCI AIDS Antiviral Assay. Conditions: for IC50: measured here: growth of uninfected CEM cells. Put shortly:
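Human CEM cells, uninfected and HIV-1-infected, exposed to five drug concentrations; growth measured by soluble formazan assay and scored as percent protection from infection, with protecting compounds retested.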

Activity calls are given as the source filed them.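 Rule for the calls: active = compounds giving half or more protection of infected cells from virus-caused growth loss, again on retest; inactive = the rest.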

By EC50 is commonly meant the concentration needed to bring the measured effect to its halfway point. What is called IC50 is the midpoint of a concentration-inhibition curve. With `Cc1cc(C)nc(NS(=O)(=O)c2ccc(NC(=O)c3ccc(Cl)c4c(Nc5ccc(S(=O)(=O)N=C(N)N)cc5)c5ccccc5nc34)cc2)n1`, the EC50 is above 35.5 µM and the IC50 was 30.9 µM.
As for `CC(C)(C)CC(C)(C)c1ccc(OCCOCC[N+](C)(C)Cc2ccccc2)cc1`, the result was inactive.
Turning to `CS(=O)(=O)ON1C(=O)c2ccc(N)cc2C1=O`, the EC50 was above 372 µM and the IC50 amounted to 282 µM.
The corresponding values for `CC(=O)Nc1ccc(N2C(=O)/C(=C\c3cccc(Oc4ccccc4)c3)S(=O)(=O)C2c2ccccc2)cc1` (centres undefined) are above 200 µM and 26.9 µM.
Turning to `CCOP(=O)(Cc1ccc(CP(=O)(OCC)OCC)n1C)OCC`, the outcome was inactive.
Consider `COc1cc2c3c(c1OC)-c1[nH]c4ccccc4c1C1CCCN(CC2)C31` (centres undefined), for which the EC50 was above 138 µM and the IC50 was found to be 15.1 µM.
Consider `Oc1cc(Cl)cc2cc(Cl)cnc12`, for which the result was inactive.
On to `COc1ccc(N2C(=O)C3c4[nH]c5ccc(C)cc5c4C4CCC(C(C)C)CC4C3C2=O)cc1` (centres undefined), for which the outcome was inactive.
Take `O=C1CCCCCCCCCCC1Sc1ccccc1` (centres undefined): the EC50 was above 12.3 µM and the IC50 is above 12.3 µM.
As to `Cc1cc(C)nc(NS(=O)(=O)c2ccc(Nc3c4ccccc4nc4c(C(=O)NCCCN(CCO)CCO)cccc34)cc2)n1`, the EC50 was above 200 µM and the IC50 amounted to 6.46 µM.
Turning to `CC(C)C/C(CC(=O)CCC(=O)Nc1ccccc1[N+](=O)[O-])=N\NC(=O)c1cc2ccccc2cc1O`, the EC50 was above 70.8 µM and the IC50 amounted to 11.7 µM.
Consider `CCOC(=O)C(Cc1ccc2c(c1)CCC2)(Cc1ccc2c(c1)CCC2)C(=O)OCC`, for which the EC50 was above 200 µM and the IC50 was found to be 69.2 µM.
Regarding `CC(=O)Oc1c2occc2cc2ccc(=O)oc12`, the EC50 is above 72.4 µM and the IC50 was above 72.4 µM.
As to `CO[C@@]12[C@H](COC(N)=O)C3=C(C(=O)C(C)=C(N)C3=O)N1C[C@@H]1N[C@@H]12`, the EC50 is above 17.4 µM and the IC50 was 0.794 µM.
The corresponding values for `O=P1(O)c2ccccc2Oc2ccccc21` are above 200 µM and above 200 µM.
Consider `CC1CCC2(CC1)NN=c1s/c(=C\c3ccc(O)cc3)c(=O)n1N2` (centres undefined), for which the result was inactive.
In the case of `OCC1CCCCCCCCCCC12SCCCS2` (centres undefined), the EC50 is above 200 µM and the IC50 was 120 µM.
With `N=C(N)C1CN(CC=O)C(=O)NC1=O` (centres undefined), the EC50 was above 200 µM and the IC50 was above 200 µM.
On to `O=C(c1ccccc1)[C@H]1Nc2cnccc2C2c3ccccc3CC21` (some centres undefined), for which the EC50 was above 30.9 µM and the IC50 is above 30.9 µM.
On to `Nc1cc2[nH]c(=O)c(=O)[nH]c2cc1N`, for which the EC50 was above 200 µM and the IC50 worked out at 63.1 µM.
As to `COc1ccc(OC)c(NC(=O)C(=O)CC(=O)c2sc(-n3nc(-c4ccccc4)cc3-c3ccccc3)nc2C)c1`, the EC50 is above 437 µM and the IC50 is 363 µM.
As to `OC1CC2C=CCC(C1)C2` (centres undefined), the result was inactive.
On to `CSc1nc2[nH]c(=O)n(OS(=O)(=O)c3ccccc3)c(=O)c2n1Cc1ccccc1`, for which the EC50 is above 200 µM and the IC50 is 105 µM.
For the compound `O=C1CCC2(c3ccccc3)Nc3cc(Cl)ccc3N12` (centres undefined), the result was inactive.
For `OCC12C3C4C1C1C2C3C41CO` (centres undefined), the EC50 is above 1510 µM and the IC50 is above 1510 µM.
Turning to `C[C@@H]1CC[C@@]2(OC1)O[C@H]1C[C@H]3[C@@H]4CC[C@H]5C[C@@H](OC6OC(CO)C(OC7OC(CO)C(O)C(OC8OCC(O)C(O)C8O)C7OC7OC(CO)C(O)C(O)C7O)C(O)C6O)CC[C@]5(C)[C@H]4CC[C@]3(C)[C@H]1[C@@H]2C` (some centres undefined), the EC50 was above 100 µM and the IC50 amounted to 6.17 µM.
Turning to `COc1cc(C(C2=C(O)c3ccccc3C(=O)C2=O)C2=C(O)c3ccccc3C(=O)C2=O)cc(OC)c1OC`, the EC50 is above 200 µM and the IC50 is 72.4 µM.
Consider `C=C(Br)C[N+](CC)(CC)CC`, for which the EC50 was above 200 µM and the IC50 was above 200 µM.
Consider `C=CNC(=S)N/C=C(\C#N)S(=O)(=O)c1ccc(C)cc1`, for which the EC50 was above 200 µM and the IC50 is above 200 µM.
For `N#CC(Sc1ccccc1)c1ccccc1` (centres undefined), the EC50 was above 44.7 µM and the IC50 is above 44.7 µM.
For the compound `CSc1nc2c(nc(N)n2C2OCC(O)C(O)C2O)c(=O)n1C` (centres undefined), the outcome was inactive.
Regarding `N#C/C=C/c1cccc(F)c1`, the EC50 is above 49 µM and the IC50 is above 49 µM.
Take `COC1/C=C/OC2(C)Oc3c(C)c(O)c4c(O)c(c(/C=N/Nc5nc6c(N)ncnc6n5C5OC(CO)C(O)C5O)c(O)c4c3C2=O)NC(=O)C(C)=C/C=C/C(C)C(O)C(C)C(O)C(C)C(OC(C)=O)C1C` (centres undefined): the EC50 was above 200 µM and the IC50 came out at 158 µM.
`O=C(Sc1c(-c2ccccc2)c(=O)n(-c2ccccc2)c(=S)n1-c1ccccc1)c1ccc(Cl)cc1`: the EC50 is above 200 µM and the IC50 turned out to be 19.5 µM.
On to `O=C1Nc2ccccc2N2C(=O)CCC12` (centres undefined), for which the EC50 was above 1230 µM and the IC50 is 617 µM.
The corresponding values for `COc1ccc(/C=C2\N=C(SC)N(CN3CCOCC3)C2=O)cc1` are above 200 µM and 29.5 µM.
Regarding `COc1ccc(N=NC(=O)NC(CC(C)C)C(=O)NC(C)C(=O)O)cc1` (centres undefined), the EC50 was above 200 µM and the IC50 stood at 2.82 µM.
Take `CCCOc1csc([C@H]2CCC3[C@@H]4CC=C5C[C@@H](O)CC[C@]5(C)C4CC[C@@]32C)n1` (some centres undefined): the EC50 is above 12 µM and the IC50 is above 12 µM.
For the compound `OCCNCNc1nc(NCNCCO)nc(N(CNCCO)CNCCO)n1`, the EC50 was above 200 µM and the IC50 amounted to 26.9 µM.
Take `CC(=O)O[C@H]1CC[C@@]2(C)C(=CC[C@@H]3C2CC[C@]2(C)Nc4[nH]ncc4CC32)C1` (some centres undefined): the outcome was inactive.
Regarding `COc1ccc(C=C2C(=O)OC(C)(C)OC2=O)cc1OC`, the EC50 was above 170 µM and the IC50 is above 170 µM.
On to `N#C/C(=C/n1c(=S)[nH]c2ccc([N+](=O)[O-])cc21)c1ccc([N+](=O)[O-])cc1`, for which the EC50 was above 200 µM and the IC50 is 117 µM.
Regarding `Oc1cc(O)cc(/C=C/c2ccc(O)c(O)c2)c1`, the result was inactive.
For the compound `C/C(=N/NC(=S)N1CCCC1)c1cccc(/C(C)=N\NC(=S)N2CCCC2)n1`, the EC50 is above 2 µM and the IC50 stood at 0.123 µM.
As for `CCOC(=O)c1ccc(NC(=O)SCCC(=O)O)cc1`, the outcome was inactive.
Regarding `CC(=O)Nc1cc(S(=O)(=O)O)cc2c(N=Nc3ccc(C(=O)Nc4ccc(N=Nc5ccc(S(=O)(=O)O)cc5)cc4)cc3)c(S(=O)(=O)O)cc(O)c12`, the outcome was inactive.
On to `CC1(c2ccccc2)CC(c2cccc([N+](=O)[O-])c2)=NO1` (centres undefined), for which the result was inactive and the IC50 worked out at 43.7 µM.
As for `O=C(Nc1ccccc1C(=O)NCc1ccccc1)/C(=C/c1ccccc1O)NC(=O)c1ccccc1`, the outcome was inactive.
As for `CC(C)[C@H]1CO[C@@H]2CCC(=O)N12`, the EC50 is above 1050 µM and the IC50 was above 1050 µM.
Consider `CC(O)C1(CNc2cc(Cl)nc(N)n2)CC(CCc2ccccc2)C1` (centres undefined), for which the EC50 was above 20 µM and the IC50 turned out to be 7.76 µM.
Consider `CCN(CC)CCOc1ccc2c(c1O)C(=O)c1ccccc1C2=O`, for which the EC50 is above 74.1 µM and the IC50 was determined as 3.98 µM.
